Laboratory results taken from patent US9434687B2, “Detection of synthetic cannabinoids” (priority 2011, dated 2016).
Like-named read-outs stand apart in the source and are kept apart here.

Legend:
Format in all cases: binding, sheep
[1] = system: antibodies raised to Immunogens I & II; test: Competitive ELISA, selected molecules as potential cross-reactants (Table 3); conditions: for % CR / IC50: Table 3, standard conc 750.00 ng/ml
Procedure: (a) The wells of an enhanced binding 96 well polystyrene microtiter plate were coated with the Ig fraction of the antiserum raised to Immunogen I (Hapten A-BTG—example 5) and diluted in 10 mM Tris, pH8.5 (125 μl/well). The appropriate antibody coating concentration was determined using standard ELISA checkerboard techniques. The plate was incubated for 2 hours at 37° C., washed 4 times over a 10-minute period with Tris buffered saline containing Tween 20 (TBST) and tapped dry. Standard solutions of JWH synthetic cannabinoids, metabolites and selected molecules were prepared in TBST and 50 μl of each was added to the appropriate wells. 75 μl of conjugate (Hapten A-HRP) diluted in Tris buffer containing EDTA, D-mannitol, sucrose, thimerosal and BSA, was added to each of the wells. The appropriate dilution of conjugate was also determined using standard ELISA checkerboard techniques. The plate was incubated at 25° C. for 1 hour. The excess unbound conjugate was removed by washing 6 times over a 10-minute period with TBST and tapped dry. 125 μl of tetramethylbenzedine (TMB) substrate solution was added to each well of the plate that was then incubated for 15-20 minutes in the dark at room temperature. The reaction was terminated by addition of 125 μl of 0.2M sulphuric acid to each well. The absorbance was then measured at 450 nm using a microtiter plate reader.
Employing each series of standards, calibration curves were generated and these were used to determine the specificity of the immunoassay for the JWH synthetic cannabinoids, metabolites and selected molecules. The results of this study are presented in Tables 1 to 3, cross-reactivity being calculated according to the following formula: % CR=IC50,JWH-018/IC50,CR×100
Where % CR is the percentage cross-reactivity, IC50, JWH-018 is the concentration of JWH-018 that causes 50% displacement of signal and IC50, CR is the concentration of JWH synthetic cannabinoid/metabolite/selected molecule that causes 50% displacement of signal.
The antibody produced from Immunogen I is able to bind to JWH molecules known to be incorporated in herbal therapeutics such as JWH-018, proposed metabolites such as M2 (Wintermeyer et al 2010), and potential metabolites such as M5. The detection and quantification of other JWH SSCs is also provided for, the antibodies of the invention bind a range of molecules comprising the 3-(1-naphthoyl)-1H-indole structure (e.g. JWH-071, JWH-398, M1 etc.). […] The concept of using the antibodies of the invention to detect and determine future stealth synthetic cannabinoids is highlighted in Table 4; the 5-fluoropentyl derivative known to bind the CB 1 receptor, but which as of yet has not been detected in herbal therapeutics or similar substances, binds to antibodies raised from Immunogens I and II.

[2] = system: IgG fraction of antiserum raised to Immunogen I; conditions: Antibody to Immunogen I; cross-reactants at 100 ng/ml; 1000 ng/ml; standard JWH-018
Summary of the method: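 Plates were coated with the IgG fraction of sheep antiserum raised to Immunogen I and incubated with standards (JWH-018, 0-40 ng/ml) plus hapten-HRP conjugate for 1 h at 25° C. Detection used TMB, read at 450 nm. IC50 was taken from a 4-parameter fit as the concentration giving half the zero-standard OD.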

[3] = system: IgG fraction of antiserum raised to Immunogen IV; conditions: Antibody to Immunogen IV; cross-reactants at 100 ng/ml; 1000 ng/ml; standard JWH-018
[4] = system: IgG fraction of antiserum raised to Immunogen VIII; conditions: Antibody to Immunogen VIII; cross-reactants at 100 ng/ml; 1000 ng/ml; standard JWH-018
[5] = system: IgG fraction of antiserum raised to Immunogen VII
[6] = system: IgG fraction of antiserum raised to Immunogen II; test: Competitive ELISA, antibody RS1833B12 to Immunogen II, tracer ESC4555 (Example 36); conditions: Antibody to Immunogen II; cross-reactants at 100 ng/ml; 1000 ng/ml; standard JWH-018
Procedure: An aqueous solution of each immunogen was formulated with Freund's Complete Adjuvant (FCA) to form an emulsion consisting of 2 mg/ml*immunogen in 50% (v/v) FCA. Three sheep were immunised with this emulsion (1° immunisation), 0.25 ml being intramuscularly injected at each of four sites in the flank of each animal. Subsequent immunizations (boosts) contained 1 mg/ml*immunogen. All boosts were emulsified in 50% (v/v) Freund's Incomplete Adjuvant (FIA) and were administered in the same manner as the 1° immunisation, at monthly intervals. Blood sampling took place 7 to 14 days after each boost. *The general procedure for immunogen administration is outlined above, however, it was necessary to deviate from this protocol in some cases, due to reduced immunogen concentrations (Immunogens II, IV, VII and VIII) and/or amount available (Immunogen VIII). Any deviations from the protocol described are outlined in Table 5 below and highlighted in bold.
The appropriate antibody coating dilution was determined using standard ELISA checkerboard techniques. The plate was incubated overnight at 4° C., washed 4 times over 10 minutes with Tris buffered saline containing Tween 20 (TBST) and tapped dry. […] 75 μl of conjugate (appropriate hapten-HRP) diluted in Tris buffer (pH 7.2) containing EDTA, D-mannitol, sucrose, thimerosal and BSA, was added to each of the wells. The appropriate dilution of conjugate was also determined using standard ELISA checkerboard techniques. The plate was incubated at 25° C. for 1 hour. Excess unbound conjugate was removed by washing 6 times over a 10 minute period with TBST. 125 μl of tetramethylbenzidine (TMB) substrate solution was added to each well of the plate that was then incubated for 20 minutes in the dark at room temperature. The reaction was terminated by addition of 125 μl 0.2M H2SO4 to each well. The absorbance was then measured at 450 nm using a microtiter plate reader. The data are inputted to a computer program called ‘KC Junior’. It is a 4 parameter fit curve and allow the calculation of concentrations between the standard runs.
In a similar manner to that described above, the wells of a 96-well microtiter plate were coated with the IgG fraction of the antiserum raised to Immunogens I or II.
The data set out in Tables 7-10 are generated using antibodies raised against the indicated Immunogens in a competitive binding assay with the indicated tracers, using the indicated standards
Using the calibration curves generated and employing a single level of cross reactants, these were used to determine the cross-reactivity of each immunoassay with these substances. These are the standards used for the IC50 and cross-reactivity data generation: […]

[7] = Antibody to Immunogen VII, cross-reactants at 100 ng/ml, 1000 ng/ml, standard JWH-015

Row | SMILES | % B/B0 [2] [%] | % B/B0 [3] [%] | % B/B0 [4] [%] | % B/B0 [5, 7] [%] | % B/B0 [6] [%] | also measured
1 | O=C(O)Cc1c[nH]c2ccc(O)cc12 [5-hydroxyindole-3-acetic acid] | 98.71 | 96.61 | 108.24 | 99.46 |  | % CR [1]: <0.28%; IC50 [1]: >0.75 µg/mL
2 | NCCc1c[nH]c2ccc(O)cc12 [Serotonin] |  |  |  |  |  | % CR [1]: <0.28%; IC50 [1]: >0.75 µg/mL
3 | COc1cccc2[nH]cc(CCN(C)C)c12 [4-Methoxypsilocin] |  |  |  |  |  | % CR [1]: <0.28%; IC50 [1]: >0.75 µg/mL
4 | CCCn1c(C)c(C(=O)c2cccc3ccccc23)c2ccccc21 [JWH-015] | 14.67 | 93.20 | 92.27 | 17.84 | 65.67 | % B/B0 ([5]; JWH-015 1.25 ng/ml): 75%; % B/B0 ([5]; JWH-015 2.5 ng/ml): 62%; % B/B0 ([5]; JWH-015 5 ng/ml): 54%; % B/B0 ([5]; JWH-015 10 ng/ml): 43%; % B/B0 ([5]; JWH-015 20 ng/ml): 34%; % B/B0 ([5]; JWH-015 40 ng/ml): 26%; % B/B0 ([5]; JWH-015 80 ng/ml): 20%; IC50 ([5]; Table 9 standard curve, standard concentration which produces 50% B/B0): 0.00591 µg/mL
5 | CN1CCCCC1Cn1cc(C(=O)c2ccccc2I)c2ccccc21 (stereo not shown) [AM-2233] | 16.97 | 92.10 | 91.25 | 72.46 | 86.43 | 
6 | CCCCn1cc(C(=O)c2cccc3ccccc23)c2ccc(O)cc21 [6-OH JWH-073, JWH-073 6-hydroxyindole metabolite] | 5.93 | 74.89 | 93.52 | 61.83 | 28.03 | 
7 | CCCCn1cc(C(=O)c2cccc3ccccc23)c2cc(O)ccc21 [5-OH JWH-073, JWH-073 5-hydroxyindole metabolite] | 7.34 | 84.06 | 90.70 | 75.11 | 20.73 | 
8 | O=C(c1cccc2ccccc12)c1cn(CCN2CCOCC2)c2ccc(O)cc12 [JWH-200 5-hydroxyindole metabolite] | 12.61 | 97.53 | 90.88 | 82.42 | 64.99 | 
9 | Cc1ccc(C(=O)c2cn(CCCCCO)c3ccccc23)c2ccccc12 [JWH-122 N-(5-hydroxypentyl) metabolite] | 42.80 | 25.72 | 48.67 | 83.65 | 71.76 | 
10 | O=C(c1ccccc1I)c1cn(CCCCCF)c2ccccc12 [AM-694] | 12.17 | 11.30 | 11.92 | 75.66 | 36.18 | 
11 | CCCCCn1cc(C(=O)c2cccc3c(Cl)cccc23)c2ccccc21 [JWH-398 5-chloronaphthyl isomer] | 35.53 | 7.06 | 19.67 | 91.33 | 23.50 | 
12 | CCn1cc(C(=O)c2cccc3ccccc23)c2ccccc21 [JWH-071] |  |  |  |  |  | binding / cross-reaction with antibodies raised from Immunogens I and II (in words) [1]: bind
13 | CS(=O)(=O)O.Cc1c(C(=O)c2cccc3ccccc23)c2cccc3c2n1[C@H](CN1CCOCC1)CO3 [(+)WIN 55212-2] | 17.00 | 92.76 | 107.12 | 24.08 | 83.87 | 
14 | CCCCn1cc(C(=O)c2cccc3ccccc23)c2c(O)cccc21 [4-OH JWH-073, JWH-073 4-hydroxyindole metabolite] | 39.50 | 28.69 | 26.23 | 82.82 | 40.14 | 
15 | CCCCCn1c(C)c(C(=O)c2cccc3ccccc23)c2ccccc21 [JWH-007] | 32.96 | 60.63 | 61.76 | 27.77 | 66.06 | 
16 | CCCCCc1cc(O)c2c(c1)OC(C)(C)[C@@H]1CCC(CO)=C[C@@H]21 [11-Hydroxy-δ-9-THC] |  |  |  |  |  | % CR [1]: <0.28%; IC50 [1]: >0.75 µg/mL
17 | CCCCCn1cc(C(=O)O)c2ccccc21 [3-Carboxy-N-pentyl-1H-indole, 3-carboxy-1-pentyl-1H-indole] |  |  |  |  |  | % CR [1]: <0.28%; IC50 [1]: >0.75 µg/mL
18 | CCCCCn1cc(C(=O)c2cccc3c(OC)cccc23)c2ccccc21 [JWH-081 5-methoxynaphthyl isomer] | 18.51 | 6.24 | 26.56 | 94.16 | 60.90 | 
19 | CC(C)C(C)n1cc(C(=O)c2cccc3ccccc23)c2ccccc21 (single isomer, unassigned) [JWH 018 N-(1,2-dimethylpropyl) isomer] | 6.60 | 87.11 | 67.71 | 62.29 | 71.33 | 
20 | O=C(c1cccc2ccccc12)c1cn(CCN2CCOCC2)c2cccc(O)c12 [JWH-200 4-hydroxyindole metabolite] | 44.97 | 87.88 | 91.82 | 91.15 | 78.17 | 
21 | CCCCCn1cc(C(=O)c2ccc(C)c3ccccc23)c2ccccc21 [JWH-122] | 62.98 | 3.94 | 14.43 | 89.37 | 44.55 | 
22 | CCC(C)Cn1cc(C(=O)c2cccc3ccccc23)c2ccccc21 (single isomer, unassigned) [JWH-018 N-(2-methylbutyl) isomer] | 3.61 | 29.88 | 85.16 | 58.84 | 28.60 | 
